Laboratory results: paper PMC10307035, “Antiviral activity of singlet oxygen-photogenerating perylene compounds against SARS-CoV-2: Interaction with the viral envelope and photodynamic virion inactivation” (Virus Research, 2023)

What was measured:
[1] = ROS generation rate / quantum yield, DPBF bleaching in methanol; assay type: physicochemical; settings: for φROS (ROS generation quantum yield): in methanol, DPBF trap, 450–470 nm illumination, riboflavin as reference
Excerpt: The ROS generation rate was estimated using the spectrophotometric method, based on the absorption changes of 1,3-diphenylisobenzofuran (DPBF, Sigma Aldrich, Germany) in methanol solution. Irreversible oxidation of DPBF by singlet oxygen results in peroxide formation, and DPBF bleaching. When light of 400–450 nm was used as actinic, DPBF bleaching occurred without any photosensitizer (PS) in solution. Therefore, to study photosensitized ROS generation, we used a white MCWHLP1 LED (Thorlabs, USA) with filters to limit the radiation to the 450–470 nm range (5.5 mW/cm^2).
Spectrophotometric measurements were performed in a Qpod 2e (Quantum Northwest, USA) thermostated cuvette holder at 25 °C with magnetic stirring (500 rpm). Absorption spectra were recorded using a MayaPro spectrophotometer (Ocean Optics, USA) and a stabilized white light source with a SLS201L tungsten lamp (Thorlabs, USA). Illumination was uniform over the entire volume of the cuvette, to prevent artifacts associated with the diffusion of non-reacted components into the illuminated volume of the cuvette. In this case, the rate of irreversible bleaching of DPBF (412 nm) was the same under both continuous and pulsed irradiation with equal total irradiation time. Illumination was performed in a pulsed mode (Fig. S5A), with 1 s of illumination followed by 5 s of dark adaptation, during which the absorption spectrum of the PS-DPBF solution was recorded. Data processing was performed as previously described ([Gvozdev et al., 2020]).

CaCo-2 cells = assay: Cellular stress marker expression by RT-qPCR in CaCo-2 cells; assay type: cell-based, human
Procedure: RT-qPCR was performed to evaluate changes in the gene expression of cellular stress markers. […] Previous publications report the primer sequences and numbers of the Universal Probe Library (UPL; Roche Life Sciences, Germany) used for detection of ATF3, CDKN1A (p21), CYP1A1, DDIT3, HMOX1, HSPA1B (HSP70), and HSPA5 mRNAs ([Procházková et al., 2018]; [Šimečková et al., 2020]). […] TaqMan™ Gene Expression Assays (Thermo Fisher Scientific, Waltham, MA, USA) were used to determine the levels of FGF21 (Hs00173927_m1), GADD45A (Hs00169255_m1), GDF15 (Hs00171132_m1), and SRXN1 (Hs00607800_m1). The amplification was run in a 10-µL reaction mixture containing 1 µL of sample, using Kapa Probe Fast One-Step (Kapa Biosystems Pty, Cape Town, South Africa) on a LightCycler® 480 System (Roche Diagnostics, Czech Republic) using the previously published sequence ([Procházková et al., 2018]). Reference gene qPCR assays (Generi Biotech, Hradec Králové, Czech Republic) were used for the following housekeeping genes: human β2-Microglobulin (B2M; #3030), hydroxymethylbilane synthase (HMBS; #3032), and RNA polymerase II subunit A (POLR2A; #3035). We used an average of three reference gene Cp values to calculate the change in gene expression using the comparative threshold cycle method ([Schmittgen and Livak, 2008]).

Vero cells [2] = assay: Cytotoxicity assay (Cell Counting Kit-8) in Vero cells; assay type: cell-based, African Green Monkey; settings: 10 µM, 48 h
Procedure: To determine the overall cytotoxicity of the tested compounds, Vero cells were cultured for 24 h in 96-well plates to form a confluent monolayer, and then were treated with the tested compounds at concentrations of 2 and 10 µM. After 48 h of cultivation in the dark at 37 °C under 5% CO2, the cell culture medium was aspirated. The potential cytotoxicity of the tested perylene derivatives was determined based on cell viability using Cell Counting Kit-8 (Dojindo Molecular Technologies, Munich, Germany) according to the manufacturer's instructions. The cell viabilities of compound-treated Vero cells were compared with those of control DMSO-treated cells. We also used the above-described protocol to assess the cytotoxicity of the selected perylene antivirals, at concentrations ranging from 0 to 10 µM, in CaCo-2 and CRFK cells.

[3] = ROS generation measurement with DMA trap in DMSO; assay type: physicochemical; settings: 465–480 nm, 30 mW/cm^2, 10 min
Procedure: ROS generation was also estimated using 9,10-dimethylanthracene (DMA), another specific fluorescent singlet oxygen trap, which forms nonfluorescent 9,10-dimethylanthracene endoperoxide after ROS-mediated DMA oxidation. Compounds (0, 0.1, 1, and 10 µM) in DMSO were mixed with DMA (0.5 µM), and these solutions were irradiated for 10 min at room temperature (RT) with light-emitting diodes (LED, 465–480 nm) having approximate power density of 30 mW/cm^2 (device description in Fig. S7). DMA fluorescence intensity was measured at ex/em wavelengths of 370/432 nm in the presence or absence of α-tocopherol (3 µg/mL) as an antioxidant. Singlet oxygen generation was accompanied by a decreased fluorescence signal of the DMA probe ([Zeng et al., 2020]).

[4] = Spectrofluorometric analysis of interaction with liposomes; assay type: physicochemical
SARS-CoV-2 = assay: Photodynamic inactivation of SARS-CoV-2 virions; assay type: cell-based; settings: 465–480 nm, 30 mW/cm^2, 10 min, then 60 min at 37 °C in the dark; plaque assay
Procedure: Virus in DMEM (titer of 10^5 PFU/mL) was mixed with the compounds (0–10 µM) in a microtiter plate, in triplicate, and irradiated for 10 min at RT with LEDs (465–480 nm) having an approximate power density of 30 mW/cm^2 (device description in supplement). As a negative control, virus was incubated for 10 min in the dark at RT. Subsequently, both irradiated and non-irradiated virus samples were incubated in the dark at 37 °C for 60 min. All manipulation with the samples before and after this incubation, i.e., mixing the compound with the virus, pipetting into a microtiter plate, etc., were performed in daylight. Viral titers were determined by plaque assays (performed also in daylight) and expressed as PFU/mL, as previously described ([Stefanik et al., 2021]). To eliminate the influence of daylight on compound activity, the whole experiment, including all manipulation with samples, was performed in a dark room under red light. The virus sample was mixed with the indicated compounds at concentrations from 0 to 10 μM or 100 μM, incubated for 60 min at 37 °C and virus viability was evaluated using a plaque assay (Fig. 9A).

Vero cells [5] = assay: Light-induced cytotoxicity in Vero cells; assay type: cell-based, African Green Monkey; settings: 0–10 µM, 465–480 nm 10 min, then 24 h in the dark
Procedure: To determine the light-induced cytotoxicity of the tested compounds, Vero cells were cultured for 24 h in 96-well plates to form a confluent monolayer, and then were treated with the tested compounds at concentrations of 0 to 10 µM. Then, the compound-treated cells were irradiated for 10 min at RT with LEDs (465–480 nm) having an approximate power density of 30 mW/cm^2 (device description in Fig. S7). As a negative control, compound-treated cells were incubated for 10 min in the dark at RT. Subsequently, both irradiated and non-irradiated cell monolayers were incubated in the dark at 37 °C for 24 h. Then, the cell culture medium was aspirated and the potential cytotoxicity of the tested perylene derivatives was determined based on cell viability using Cell Counting Kit-8 (Dojindo Molecular Technologies, Munich, Germany) according to the manufacturer's instructions.

Row | SMILES | φROS (ROS generation quantum yield) [1] | cell viability (in words) (Vero cells [2]) | other results
1 | CC(C)(C)C(=O)OCn1c(=O)c(C#Cc2ccc3c4cccc5cccc(c6cccc2c63)c54)cn(CC(=O)NCCO)c1=O [Compound 9] | 17.3 ± 0.2% | – | –
2 | CC(=O)Nc1ccc(C#Cc2ccc3c4cccc5cccc(c6cccc2c63)c54)cc1 [Compound 15] | 23.1 ± 0.4% | – | –
3 | CC(C)(C)C(=O)OCn1c(=O)c(C#Cc2ccc3c4cccc5cccc(c6cccc2c63)c54)cn(CC(=O)NCCCCO)c1=O [Compound 6] | 18.2 ± 0.2% | – | –
4 | CC(C)(C)C(=O)OCn1c(=O)c(C#Cc2ccc3c4cccc5cccc(c6cccc2c63)c54)cn(CC(=O)NC[C@@H](O)C(C)(C)CO)c1=O [Compound 7] | 17.3 ± 0.2% | – | –
5 | Clc1cc2c(cc1Cl)Oc1cc(Cl)c(Cl)cc1O2 [TCDD, reference compound] | – | – | increase of CYP1A1 mRNA level (CaCo-2 cells; CaCo-2 cells, 10 nM): up to 50 fold
6 | CC(C)(C)C(=O)OCn1c(=O)c(C#Cc2ccc3c4cccc5cccc(c6cccc2c63)c54)cn(CC(=O)NCCCO)c1=O [Compound 10] | 16.5 ± 0.2% | – | –
7 | O=C(c1ccc(-c2ccc3c4cccc5cccc(c6cccc2c63)c54)s1)N(CCO)CCO [Compound 18] | 60.0 ± 2.4% | – | –
8 | CC(C)(C)C(=O)OCn1c(=O)c(C#Cc2ccc3c4cccc5cccc(c6cccc2c63)c54)cn(CC(=O)NCCCCCCO)c1=O [Compound 12] | 18.1 ± 0.4% | moderately decreased cell viability | –
9 | O=c1[nH]cc(C#Cc2ccc3c4cccc5cccc(c6cccc2c63)c54)c(=O)[nH]1 [Compound 3] | 12.7 ± 1.2% | – | –
10 | Cn1cc(C#Cc2ccc3c4cccc5cccc(c6cccc2c63)c54)c(=O)n(C)c1=O [Compound 4] | 22.8 ± 0.4% | moderately decreased cell viability | –
11 | O=c1[nH]c(=O)n([C@@H]2O[C@H](CO)[C@@H](O)[C@@H]2O)cc1C#Cc1ccc2c3cccc4cccc(c5cccc1c52)c43 [Compound 1, 5-(perylen-3-yl)ethynyl-arabino-uridine] | 22.8 ± 0.4% | – | –
12 | O=C(O)c1ccc2c3cccc4cccc(c5cccc1c52)c43 [Compound 20] | – | moderately decreased cell viability | ROS generation, DMA trap, under blue light [3]: minimal photodynamic activities; photodynamic activity (DPBF trap, in words) ([1]; methanol, 450–470 nm): minimal; solubility in water (in words) [4]: good solubility in water; penetration into liposomal membranes (in words) ([4]; 10 µM in PBS, EPC/Chol 70/30 mol% liposomes): no fluorescence enhancement
13 | CC(C)(C)C(=O)OCn1c(=O)c(C#Cc2ccc3c4cccc5cccc(c6cccc2c63)c54)cn(CC(=O)NCCCCCO)c1=O [Compound 11] | 17.2 ± 0.4% | – | –
14 | CCCCNC(=O)c1ccc(-c2ccc3c4cccc5cccc(c6cccc2c63)c54)s1 [Compound 19] | 59.1 ± 1.2% | moderately decreased cell viability | –
15 | C/C=C(/C)C(=O)O[C@H]1C(C)=C2[C@H]([C@@H]1OC(=O)CCCCCCC)[C@@](C)(OC(C)=O)C[C@H](OC(=O)CCC)[C@@]1(O)[C@H]2OC(=O)[C@@]1(C)O [thapsigargin, reference compound] | – | – | expression of HSPA5, DDIT3, HSPA1B (HSP70), CDKN1A (p21), GADD45A (CaCo-2 cells; CaCo-2 cells, 5, 24 and 48 h): increased
16 | CC(C)(C)C(=O)OCn1c(=O)c(C#Cc2ccc3c4cccc5cccc(c6cccc2c63)c54)cn(CC(=O)O)c1=O [Compound 5] | 20.5 ± 0.2% | moderately decreased cell viability | –
17 | CCCCNC(=O)Cn1cc(C#Cc2ccc3c4cccc5cccc(c6cccc2c63)c54)c(=O)n(COC(=O)C(C)(C)C)c1=O [Compound 8] | 17.6 ± 0.4% | moderately decreased cell viability | antiviral activity after blue light irradiation of virus-compound mixture (SARS-CoV-2): significant increase of antiviral activity; effect of blue light irradiation on cytotoxicity (Vero cells [5]): no effect
